Like-named read-outs stand apart in the source and are kept apart here. Starred links: 1 amine or outer side, 2 acyl side, 3 side chain; linkers in the order of their positions; H or OH if unused. Positions of bridges follow the written chain, without caps; N, C: chain ends. Non-standard residues stand in square brackets, D forms with d. Residues, ends and D or L forms follow the SMILES beside them. ξ: configuration not given here. X2 = O=C(CC[C@H](Cc1ccc(O)cc1)N[*:1])[*:2]; β3hS = N[C@@H](CO)CC(=O)O; Dab = NCC[C@H](N)C(=O)O; ξT = CC(O)C(N)C(=O)O
Assays:
human CXCR4 = biological target: T1, human CXCR4 (Homo sapiens, UniProt P61073); assay: Ca2+-assay: CXCR4-antagonizing activity (SDF-1 induced calcium mobilization); type: cell-based; details: mouse pre-B cell line 300-19 stably transfected with human CXCR4, read-out: IC50% [nM] ± SD, CXCR4 receptor
T1 construct: expressed in transfected cells; host or cells: mouse pre-B cell line 300-19
T1 sequence (P61073 whole entry): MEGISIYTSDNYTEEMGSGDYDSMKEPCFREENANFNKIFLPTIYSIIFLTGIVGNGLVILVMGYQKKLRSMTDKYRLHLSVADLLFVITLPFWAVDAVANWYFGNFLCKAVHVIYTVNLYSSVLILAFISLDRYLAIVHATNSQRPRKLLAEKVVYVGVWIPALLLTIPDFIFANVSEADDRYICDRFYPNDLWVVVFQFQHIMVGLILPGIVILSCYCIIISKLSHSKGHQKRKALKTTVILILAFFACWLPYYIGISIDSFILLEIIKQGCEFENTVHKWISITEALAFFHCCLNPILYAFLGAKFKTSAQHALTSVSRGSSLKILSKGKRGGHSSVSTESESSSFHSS
From the text: 2.3. Ca^2+-Assay: CXCR4-Antagonizing Activity of the Peptides
Increases in intracellular calcium were monitored using a Flexstation 384 (Molecular Devices, Sunnyvale, Calif.) to assay the depsipeptides for CXCR4 antagonism in a mouse pre-B cell line 300-19 stably transfected with human CXCR4 (E. Oberlin, A. Amara, F. Bachelerie, C. Bessia, J.-L. Virelizier, F. Arenzana-Seisdedos, O. Schwartz, J.-M. Heard, I. Clark-Lewis, D. F. Legler, M. Loetscher, M. Baggiolini, B. Moser, Nature 1996, 382, 833-835; M. Loetscher, T. Geiser, T. O'Reilly, R. Zwalen, M. Baggiolini, B. Moser, J. Biol. Chem. 1994, 269, 232-237; M. D'Apuuo, A. Rolink, M. Loetscher, J. A. Hoxie, I. Clark-Lewis, F. Melchors, M. Baggiolini, B. Moser, Eur. J. Immunol. 1997, 27, 1788-1793). The cells were batch loaded with the Calcium 4 Assay kit (Molecular Devices) in assay buffer (Hanks Balanced salt solution [HBSS], 20 mM HEPES, pH 7.4, 0.1% BSA) for 1 h at room temperature and labeled cells were dispensed into black 96 well assays plates (Costar No. 3603). Calcium mobilization induced by stromal-derived factor-1 (SDF-1) was measured in the Flexstation 384 (excitation: 485 nm; emission: 525 nm) for 90 seconds. Antagonist activity of peptides was determined by spiking the cells with compounds prior to SDF-1 addition. Dose response curves (compound concentration versus % maximum response for SDF-1) were determined for each antagonist and IC50 values were calculated by fitting the data to a four parameter logistic equation using SoftmaxPro 4.8 (Molecular Devices).

in vitro [1] = type: cell-based
Method: (§1) The cytotoxicity of the depsipeptides to HELA cells (Acc57) and COS-7 cells (CRL-1651) was determined using the MTT reduction assay (T. Mossman, J. Immunol. Meth. 1983, 65, 55-63; M. V. Berridge, A. S. Tan, Arch. Biochem. Biophys. 1993, 303, 474-482). Briefly, the method was as follows: 7000 HELA cells/well and 4500 COS-7 cells/well were seeded and grown in 96-well microtiter plates for 24 h at 37° C. at 5% CO2. Thereafter, time zero (Tz) was determined by MTT reduction (see below). The supernatant of the remaining wells was discarded, and fresh medium and compounds in serial dilutions (12.5, 25 and 50 μM, triplicates) were pipetted into the wells. After incubation of the cells for 48 h at 37° C. at 5% CO2 the supernatant was discarded again and 100 μL MTT reagent (0.5 mg/mL in RPMI1640 and DMEM, respectively)/well was added. Following incubation at 37° C. for 2 h the media were aspirated and the cells were spiked (100 μL isopropanol/well). The absorbance of the solubilized formazan was measured at 595 nm (OD595peptide). For each concentration averages were calculated from triplicates. The percentage of growth was calculated as follows: (OD595peptide-OD595Tz-OD595Empty well)/(OD595Tz-OD595Empty well)×100%. The GI50 (Growth Inhibition) concentrations were calculated for each depsipeptide by using a trend line function for the concentrations (50, 25, 12.5 and 0 μM), the corresponding percentages and the value 50, (=TREND (C50:C0, %50:%0, 50).

in vitro [2] = type: cell-based; remark: listed apart in the source
Method: as §1

[3] = test system: human red blood cells (hRBC); details: red cells of human, 1 h
Method: The peptides were tested for their hemolytic activity against human red blood cells (hRBC). Fresh hRBC were washed three times with phosphate buffered saline (PBS) and centrifuged for 10 min at 2000×g. Compounds (100 μM) were incubated with 20% hRBC (v/v) for 1 h at 37° C. The final erythrocyte concentration was approximately 0.9×10^9 cells/mL. A value of 0% and 100% cell lyses, respectively, was determined by incubation of hRBC in the presence of PBS alone and 0.1% Triton X-100 in H2O, respectively. The samples were centrifuged, the supernatants were 20-fold diluted in PBS buffer and the optical densities (OD) were measured at 540 nm.
Percent hemolysis was calculated as follows: (OD540peptide/OD540H2O)×100%.

[4] = Plasma stability in human plasma
Method: (§2) The stability of the peptides in human and mouse plasma was determined by applying the following method: 315 μL/deep well of freshly thawed human plasma (Basler Blutspende-dienst) and mouse plasma (Harlan Sera-Lab, UK), respectively, were spiked with 35 μL/well of compound in PBS (100 μM, triplicate) and incubated at 37° C. […] Following shaking for 2 min the occurred suspensions were filtrated by vacuum and finally, 100 μL of each filtrate were transferred to a propylene microtiter plate, and analyzed by LC/MS as follows: Column: Waters, XBridge C18, mobile phases: (A) water+0.1% formic acid and (B) acetonitrile/water, 95/5 (v/v)+0.1% formic acid, gradient: 5%-100% (B) in 2 minutes, electrospray ionization, MRM detection (triple quadrupole). The peak areas were determined and triplicate values are averaged. The stability is expressed in percent of the initial value at t=0. (tx/to×100). By using the TREND function of EXCEL (Microsoft Office 2003) T1/2 were determined.

[5] = Plasma stability in mouse plasma
Method: as §2

[6] = human plasma, 37° C., sampling up to 240 min
[7] = mouse plasma, 37° C., sampling up to 240 min

SMILES	IC50 (human CXCR4) [nM]	GI50 (in vitro [1]; human) [µM]	GI50 (in vitro [2]; African green monkey) [µM]	Hemolysis at 100 μM [3] [%]	Plasmastability human pl. T1/2 [4, 6] [h]	Plasmastability mouse pl. T1/2 [5, 7] [h]	Plasmastability human pl. T1/2 ([4]; human, plasma, 10 μM) [h]	Plasmastability mouse pl. T1/2 ([5]; mouse, plasma, 10 μM) [h]	GI50 (in vitro [1]) [µM]	GI50 (in vitro [2]) [µM]
CC[C@@H](C)[C@H]1NC(=O)[C@H](CCCCN)NC(=O)[C@H](CCC(N)=O)NC(=O)[C@H](Cc2ccc(O)cc2)NC(=O)[C@@H]2CSSC[C@H](NC(=O)[C@H](C)NC(=O)[C@H](Cc3c[nH]cn3)NC(=O)[C@H](Cc3ccc(O)cc3)NC(=O)[C@@H]3CCCN3C1=O)C(=O)N[C@@H](CO)C(=O)N[C@@H](C)C(=O)N[C@H](Cc1c[nH]c3ccccc13)C(=O)N[C@@H](CCN)C(=O)N[C@@H](CCCNC(=N)N)C(=O)N[C@@H](Cc1ccc(O)cc1)C(=O)N2 [compound 11]	0.17 ± 0.02	> 50	> 50	1.7	4	4				
C[C@@H]1NC(=O)[C@H](Cc2c[nH]cn2)NC(=O)[C@H](Cc2ccc(O)cc2)NC(=O)[C@@H]2CCCN2C(=O)CN(CCCCN)C(=O)[C@H](CCCCN)NC(=O)[C@H](CCC(N)=O)NC(=O)[C@H](Cc2ccc(O)cc2)NC(=O)[C@@H]2CSSC[C@H](NC1=O)C(=O)N[C@@H](CO)C(=O)N[C@@H](C)C(=O)N1CCC[C@@H]1C(=O)N[C@@H](CCN)C(=O)N[C@@H](CCCNC(=N)N)C(=O)N[C@@H](Cc1ccc(O)cc1)C(=O)N2 [compound 9]	0.09 ± 0.05	> 50	> 50	2.1	4	4				
C[C@@H]1NC(=O)[C@H](CO)NC(=O)[C@@H]2CSSC[C@H](NC(=O)[C@H](Cc3ccc(O)cc3)NC(=O)[C@H](CCCNC(=N)N)NC(=O)[C@H](CCN)NC(=O)[C@@H](Cc3ccc(O)cc3)NC1=O)C(=O)N[C@@H](Cc1ccc(O)cc1)C(=O)N[C@@H](CCC(N)=O)C(=O)N[C@@H](CCCCN)C(=O)N(C)[C@H](C)C(=O)N1CCC[C@H]1C(=O)N[C@@H](Cc1ccc(O)cc1)C(=O)N[C@@H](Cc1c[nH]cn1)C(=O)N[C@@H](C)C(=O)N2 [compound 12]	0.1 ± 0.02	> 50	> 50	0.9	4	4				
C[C@@H]1NC(=O)[C@H](Cc2c[nH]cn2)NC(=O)CC[C@H](Cc2ccc(O)cc2)NC(=O)[C@@H]2CCCN2C(=O)[C@H]2CCCN2C(=O)[C@H](CCCCN)NC(=O)[C@H](CCC(N)=O)NC(=O)[C@H](Cc2ccc(O)cc2)NC(=O)[C@@H]2CSSC[C@H](NC1=O)C(=O)N[C@@H](CO)C(=O)N[C@@H](C)C(=O)N1CCC[C@@H]1C(=O)N[C@@H](CCN)C(=O)N[C@@H](CCCNC(=N)N)C(=O)N[C@@H](Cc1ccc(O)cc1)C(=O)N2 [compound 18] (cyclo([X2]HACSA[dP][Dab]RYCYQK[dP]P); disulfide 4-11)	0.39 ± 0.5	> 50	> 50	1.4			4	4		
C[C@@H]1NC(=O)[C@H](Cc2c[nH]cn2)NC(=O)[C@H](Cc2ccc(O)cc2)NC(=O)[C@@H]2CCCN2C(=O)[C@@H](CC2CCCCC2)NC(=O)[C@H](CCCCN)NC(=O)[C@H](CCC(N)=O)NC(=O)[C@H](Cc2ccc(O)cc2)NC(=O)[C@@H]2CSSC[C@H](NC1=O)C(=O)N[C@@H](CO)C(=O)N[C@@H](C)C(=O)N1CCC[C@@H]1C(=O)N[C@@H](CCN)C(=O)N[C@@H](CCCNC(=N)N)C(=O)N[C@@H](Cc1ccc(O)cc1)C(=O)N2 [Ex. 1]	1.3 ± 0.4	> 50	> 50	0	4	4				
C[C@@H]1NC(=O)[C@H](Cc2c[nH]cn2)NC(=O)[C@H](Cc2ccc(O)cc2)NC(=O)[C@@H]2CCCN2C(=O)[C@H]2CCCN2C(=O)[C@H](CCCCN)NC(=O)[C@H](CCC(N)=O)NC(=O)[C@H](Cc2ccc(O)cc2)NC(=O)[C@@H]2CSSC[C@H](NC1=O)C(=O)N[C@@H](CO)CC(=O)N[C@@H](C)C(=O)N1CCC[C@@H]1C(=O)N[C@@H](CCN)C(=O)N[C@@H](CCCNC(=N)N)C(=O)N[C@@H](Cc1ccc(O)cc1)C(=O)N2 [compound 20] (cyclo(YHAC[β3hS]A[dP][Dab]RYCYQK[dP]P); disulfide 4-11)	2.66 ± 2.2	> 50	> 50	0.6			4	4		
C[C@@H]1NC(=O)[C@H](Cc2c[nH]cn2)NC(=O)[C@H](Cc2ccc(O)cc2)NC(=O)[C@@H]2CCCN2C(=O)[C@@H](Cc2ccc(O)cc2)N(C)C(=O)[C@H](CCCCN)NC(=O)[C@H](CCC(N)=O)NC(=O)[C@H](Cc2ccc(O)cc2)NC(=O)[C@@H]2CSSC[C@H](NC1=O)C(=O)N[C@@H](CO)C(=O)N[C@@H](C)C(=O)N1CCC[C@@H]1C(=O)N[C@@H](CCN)C(=O)N[C@@H](CCCNC(=N)N)C(=O)N[C@@H](Cc1ccc(O)cc1)C(=O)N2 [compound 7]	0.33 ± 0.1	> 50	> 50	0.6	4	4				
CC(O)C1NC(=O)[C@@H]2CSSC[C@H](NC(=O)[C@H](Cc3ccc(O)cc3)NC(=O)[C@H](CCCNC(=N)N)NC(=O)[C@H](CCN)NC(=O)[C@H]3CCCN3C(=O)[C@H](C)NC1=O)C(=O)N[C@@H](Cc1ccc(O)cc1)C(=O)N[C@@H](CCC(N)=O)C(=O)N[C@@H](CCCCN)C(=O)N1CCC[C@@H]1C(=O)N1CCC[C@H]1C(=O)N[C@@H](Cc1ccc(O)cc1)C(=O)N[C@@H](Cc1c[nH]cn1)C(=O)N[C@@H](C)C(=O)N2 (some centres unmarked) [compound 17] (cyclo(YHAC[ξT]A[dP][Dab]RYCYQK[dP]P); disulfide 4-11)				1	4	4			> 50	> 50
